Measurements from patent publication US11364275B2, “Linear lipopeptide paenipeptins and methods of using the same” (priority 2017, dated 2022).
Like-named read-outs stand apart in the source and are kept apart here. Where a SMILES comes first, the peptide text is derived from it. [ ]: non-standard residue; d: D form. The star is where a group is joined. Dab = NCC[C@H](N)C(=O)O; Cbz = O=C(OCc1ccccc1)*

Assays:
[1] = system: A. baumannii FDA-CDC AR 0070; conditions: A. baumannii AR 0070
rabbit red blood cells = assay: Hemolytic activity; assay type: cell-based; conditions: for Hemolysis: relative to Triton X-100
Summary of the method: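 Washed defibrinated rabbit RBCs in PBS pH 7.2 incubated 30 min at 37 °C with paenipeptin analogues at 16–128 μg/mL final. Released hemoglobin read at 415 nm in the supernatant; % hemolysis relative to 0.1% Triton X-100.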

For `CC[C@H](C)[C@H](NC(=O)[C@H](CCN)NC(=O)OCc1ccccc1)C(=O)N[C@@H](CCN)C(=O)N[C@H](Cc1ccccc1)C(=O)N[C@@H](CC(C)C)C(=O)N[C@@H](CCN)C(=O)N[C@@H](C(=O)N[C@@H](CC(C)C)C(=O)N[C@@H](CO)C(N)=O)C(C)C` [Analogue 15] (Cbz-[Dab]I[Dab][dF]L[Dab][dV]LS-NH2), the MIC alone ([1]; 10% FBS) was 0.5 to 1 µg/mL, the MIC alone ([1]; No FBS) was ≤0.5 µg/mL and the Hemolysis (rabbit red blood cells; 16 μg/mL) was 0.77 ± 0.15%. For the same molecule, the Hemolysis (rabbit red blood cells; 32 μg/mL) was 0.41 ± 0.67%, the Hemolysis (rabbit red blood cells; 64 μg/mL) was 0.54 ± 0.70% and the “hemolytic activity (in words)” value (rabbit red blood cells; 128 μg/mL) was “nonhemolytic”. The Hemolysis (rabbit red blood cells; 128 μg/mL) was 0.65 ± 0.29%.
